Assay results as given in ChEMBL document CHEMBL3879901, “Substituted isoquinolin-1(2H)-ones, and methods of use thereof” (2012).

Key:
[1] = target: PI3-kinase p110-delta/p85-alpha (Homo sapiens, UniProt O00329); assay: Inhibition of N-terminal His6-tagged recombinant full-length human p110delta/untagged recombinant full length p85alpha expressed in baculovirus infected Sf21 cells using phosphatidylinositol as substrate in presence of gamma-32P-ATP after 5 mins by thin layer chromatographic method
PI3-kinase p110-delta/p85-alpha, sequence (P27986 whole entry): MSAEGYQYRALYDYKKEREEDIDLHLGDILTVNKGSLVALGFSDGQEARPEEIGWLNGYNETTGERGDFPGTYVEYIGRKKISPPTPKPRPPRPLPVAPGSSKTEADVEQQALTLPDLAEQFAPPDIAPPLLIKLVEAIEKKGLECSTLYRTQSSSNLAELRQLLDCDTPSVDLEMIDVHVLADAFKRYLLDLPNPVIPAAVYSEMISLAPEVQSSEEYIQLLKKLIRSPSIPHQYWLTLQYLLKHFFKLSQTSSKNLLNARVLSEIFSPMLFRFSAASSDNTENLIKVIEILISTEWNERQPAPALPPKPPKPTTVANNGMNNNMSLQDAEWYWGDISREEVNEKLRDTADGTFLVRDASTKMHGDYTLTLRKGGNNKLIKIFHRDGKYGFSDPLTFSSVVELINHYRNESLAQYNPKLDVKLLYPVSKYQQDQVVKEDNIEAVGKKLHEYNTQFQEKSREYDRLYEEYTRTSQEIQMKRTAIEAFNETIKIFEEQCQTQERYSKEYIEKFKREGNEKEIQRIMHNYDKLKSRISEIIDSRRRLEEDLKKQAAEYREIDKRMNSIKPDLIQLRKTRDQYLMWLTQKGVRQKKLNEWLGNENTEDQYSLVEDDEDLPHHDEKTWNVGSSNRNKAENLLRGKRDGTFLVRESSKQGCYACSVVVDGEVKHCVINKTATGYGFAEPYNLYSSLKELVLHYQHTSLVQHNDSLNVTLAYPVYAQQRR
PI3-kinase p110-delta/p85-alpha, sequence (O00329 whole entry): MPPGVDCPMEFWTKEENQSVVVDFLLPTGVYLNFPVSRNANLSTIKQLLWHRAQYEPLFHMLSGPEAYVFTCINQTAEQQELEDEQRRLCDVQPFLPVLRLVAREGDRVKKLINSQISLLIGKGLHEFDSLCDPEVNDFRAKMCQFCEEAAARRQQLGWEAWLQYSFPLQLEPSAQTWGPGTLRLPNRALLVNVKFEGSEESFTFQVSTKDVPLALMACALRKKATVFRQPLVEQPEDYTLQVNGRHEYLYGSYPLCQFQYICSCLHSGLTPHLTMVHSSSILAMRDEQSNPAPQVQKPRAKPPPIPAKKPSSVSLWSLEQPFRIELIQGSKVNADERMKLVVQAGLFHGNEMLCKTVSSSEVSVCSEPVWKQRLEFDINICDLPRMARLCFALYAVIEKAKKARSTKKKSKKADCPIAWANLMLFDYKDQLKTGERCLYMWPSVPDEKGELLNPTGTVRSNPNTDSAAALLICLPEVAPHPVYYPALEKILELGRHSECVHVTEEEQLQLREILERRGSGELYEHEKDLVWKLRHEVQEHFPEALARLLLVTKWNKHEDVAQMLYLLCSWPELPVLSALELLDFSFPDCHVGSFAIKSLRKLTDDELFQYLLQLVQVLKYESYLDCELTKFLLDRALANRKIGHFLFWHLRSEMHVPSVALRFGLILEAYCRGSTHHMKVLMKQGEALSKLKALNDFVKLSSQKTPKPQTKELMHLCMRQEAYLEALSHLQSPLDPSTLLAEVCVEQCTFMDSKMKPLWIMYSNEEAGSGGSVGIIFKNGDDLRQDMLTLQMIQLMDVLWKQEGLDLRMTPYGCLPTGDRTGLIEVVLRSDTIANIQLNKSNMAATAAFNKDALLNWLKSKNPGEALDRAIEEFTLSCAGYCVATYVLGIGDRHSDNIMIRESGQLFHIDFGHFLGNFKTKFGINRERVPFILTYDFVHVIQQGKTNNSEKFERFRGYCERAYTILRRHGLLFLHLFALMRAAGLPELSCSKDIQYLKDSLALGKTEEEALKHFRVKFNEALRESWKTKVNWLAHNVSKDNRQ

[2] = target: PI3-kinase p110-alpha/p85-alpha (Homo sapiens, UniProt P42336); assay: Inhibition of N-terminal His6-tagged recombinant full-length human p110alpha/untagged recombinant full length human p85alpha expressed in baculovirus infected Sf21 cells using phosphatidylinositol as substrate in presence of gamma-32P-ATP after 5 mins by thin layer chromatographic method
PI3-kinase p110-alpha/p85-alpha, sequence (P27986 whole entry): as the sequence (P27986 whole entry) above
PI3-kinase p110-alpha/p85-alpha, sequence (P42336 whole entry): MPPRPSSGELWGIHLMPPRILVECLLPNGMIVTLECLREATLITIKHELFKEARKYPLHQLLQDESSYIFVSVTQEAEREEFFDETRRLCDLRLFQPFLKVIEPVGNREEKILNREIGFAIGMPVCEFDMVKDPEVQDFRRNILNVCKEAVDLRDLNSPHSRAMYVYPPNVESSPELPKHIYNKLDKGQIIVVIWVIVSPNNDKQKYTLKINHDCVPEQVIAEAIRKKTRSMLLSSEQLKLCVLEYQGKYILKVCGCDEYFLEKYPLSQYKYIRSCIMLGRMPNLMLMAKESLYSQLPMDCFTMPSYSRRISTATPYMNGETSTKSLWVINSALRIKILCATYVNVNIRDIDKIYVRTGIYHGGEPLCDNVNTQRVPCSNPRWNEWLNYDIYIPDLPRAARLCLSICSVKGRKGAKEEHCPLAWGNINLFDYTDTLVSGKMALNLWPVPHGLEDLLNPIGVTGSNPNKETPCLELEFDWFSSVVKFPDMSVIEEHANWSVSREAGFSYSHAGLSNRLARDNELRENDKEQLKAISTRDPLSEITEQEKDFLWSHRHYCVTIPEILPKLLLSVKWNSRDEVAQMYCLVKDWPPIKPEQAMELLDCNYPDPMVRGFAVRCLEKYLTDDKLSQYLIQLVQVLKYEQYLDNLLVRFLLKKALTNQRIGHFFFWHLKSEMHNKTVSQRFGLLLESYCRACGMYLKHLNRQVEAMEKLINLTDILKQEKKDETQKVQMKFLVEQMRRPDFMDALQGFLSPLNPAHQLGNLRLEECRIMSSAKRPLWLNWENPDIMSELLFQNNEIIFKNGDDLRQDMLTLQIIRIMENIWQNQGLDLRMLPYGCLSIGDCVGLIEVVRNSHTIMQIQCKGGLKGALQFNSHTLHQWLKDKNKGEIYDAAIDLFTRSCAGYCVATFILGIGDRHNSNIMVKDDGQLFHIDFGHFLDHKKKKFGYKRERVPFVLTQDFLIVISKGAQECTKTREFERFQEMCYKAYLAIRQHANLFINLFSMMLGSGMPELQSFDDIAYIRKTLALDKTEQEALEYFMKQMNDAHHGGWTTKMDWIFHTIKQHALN

[3] = target: PI3K p110 beta/p85 alpha (Homo sapiens, UniProt P42338); assay: Inhibition of N-terminal His6-tagged recombinant full-length human p110beta/untagged recombinant full length p85alpha expressed in baculovirus infected Sf21 cells using phosphatidylinositol as substrate in presence of gamma-32P-ATP after 5 mins by thin layer chromatographic method
PI3K p110 beta/p85 alpha, sequence (P27986 whole entry): as the sequence (P27986 whole entry) above
PI3K p110 beta/p85 alpha, sequence (P42338 whole entry): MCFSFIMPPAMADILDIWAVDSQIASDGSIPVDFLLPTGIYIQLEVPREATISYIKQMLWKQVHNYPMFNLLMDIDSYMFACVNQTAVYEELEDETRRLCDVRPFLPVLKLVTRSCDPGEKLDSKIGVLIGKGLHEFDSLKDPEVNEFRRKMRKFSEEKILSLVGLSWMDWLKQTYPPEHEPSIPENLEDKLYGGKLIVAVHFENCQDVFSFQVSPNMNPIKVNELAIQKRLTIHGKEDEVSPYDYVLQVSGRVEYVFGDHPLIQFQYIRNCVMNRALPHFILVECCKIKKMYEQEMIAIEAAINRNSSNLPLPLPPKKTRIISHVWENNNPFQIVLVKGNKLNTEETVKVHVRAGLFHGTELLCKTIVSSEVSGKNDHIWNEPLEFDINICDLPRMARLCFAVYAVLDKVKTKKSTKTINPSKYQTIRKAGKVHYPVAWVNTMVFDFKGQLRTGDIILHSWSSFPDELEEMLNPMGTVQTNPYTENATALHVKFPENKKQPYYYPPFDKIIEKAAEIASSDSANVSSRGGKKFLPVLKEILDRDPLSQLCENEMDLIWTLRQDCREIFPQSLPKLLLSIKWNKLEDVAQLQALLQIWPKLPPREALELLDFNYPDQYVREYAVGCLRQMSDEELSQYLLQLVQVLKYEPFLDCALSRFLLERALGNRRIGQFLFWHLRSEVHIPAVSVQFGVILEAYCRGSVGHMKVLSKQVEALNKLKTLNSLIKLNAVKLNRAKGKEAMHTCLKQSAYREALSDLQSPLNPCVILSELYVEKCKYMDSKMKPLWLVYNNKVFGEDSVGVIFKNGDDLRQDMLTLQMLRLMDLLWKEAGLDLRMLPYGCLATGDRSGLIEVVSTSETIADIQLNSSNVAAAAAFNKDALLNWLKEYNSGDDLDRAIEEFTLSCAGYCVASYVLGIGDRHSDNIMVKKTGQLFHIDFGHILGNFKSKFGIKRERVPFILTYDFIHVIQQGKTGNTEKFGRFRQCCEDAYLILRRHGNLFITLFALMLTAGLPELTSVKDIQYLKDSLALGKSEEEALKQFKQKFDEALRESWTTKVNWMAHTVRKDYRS

[4] = Antiproliferative activity against Balb/c mouse splenic B cells preincubated for 30 mins followed by LPS or F(ab')2 donkey anti-mouse IgM and recombinant mouse IL4 stimulation measured after 72 hrs by Alamar Blue reduction assay; type: functional, cell-based

CC(=O)Nc1nc2ccc(-c3nn(Cc4cc5cccc(C)c5c(=O)n4C)c4ncnc(N)c34)cc2s1
IC50 [1]: < 0.1 µM
IC50 [2]: < 100 µM
IC50 [3]: < 1 µM
EC50 [4]: < 0.1 µM

Cc1cccnc1-n1c(Cn2nc(I)c3c(N)ncnc32)cc2cccc(C)c2c1=O
IC50 [2]: > 10 µM
EC50 [4]: < 1 µM

Cc1ccccc1-n1c(Cn2nc(-c3cc(O)cc(F)c3)c3c(N)nccc32)cc2cccc(C)c2c1=O
IC50 [1]: < 0.1 µM
IC50 [2]: < 10 µM
IC50 [3]: < 10 µM
EC50 [4]: < 0.1 µM

Cc1ccccc1-n1c(Cn2nc(-c3cccc(O)c3)c3c(N)ncnc32)cc2cccc(F)c2c1=O
IC50 [1]: < 0.1 µM
IC50 [2]: > 10 µM
IC50 [3]: > 10 µM

Cc1cccnc1-n1c(Cn2nc(-c3ccc(Cl)c(O)c3)c3c(N)ncnc32)cc2cccc(C)c2c1=O
IC50 [1]: < 0.1 µM
IC50 [2]: > 10 µM
IC50 [3]: < 10 µM
EC50 [4]: < 0.1 µM

Cc1ccccc1-n1c(Cn2nc(-c3ccn[nH]3)c3c(N)ncnc32)cc2cccc(C)c2c1=O
IC50 [1]: < 1 µM
IC50 [2]: > 10 µM
IC50 [3]: > 10 µM

Cc1ccccc1-n1c(Cn2nc(-c3ccc4nc(N)sc4c3)c3c(N)ncnc32)cc2cccc(C)c2c1=O
IC50 [1]: < 0.1 µM
IC50 [2]: < 1 µM
IC50 [3]: < 10 µM
EC50 [4]: < 1 µM

CC(=O)Nc1nc2ccc(-c3nn(Cc4cc5cccc(C)c5c(=O)n4C(C)C)c4ncnc(N)c34)cc2s1
IC50 [1]: < 0.1 µM
IC50 [2]: < 100 µM
IC50 [3]: < 10 µM
EC50 [4]: < 0.1 µM

Cc1cccc2cc(Cn3nc(-c4cc(O)cc(F)c4)c4c(N)ncnc43)n(-c3ccccc3F)c(=O)c12
IC50 [1]: < 0.1 µM
IC50 [2]: < 10 µM
IC50 [3]: < 10 µM
EC50 [4]: < 0.1 µM

CC(=O)Nc1nc2ccc(-c3nn(Cc4cc5cccc(C)c5c(=O)n4-c4cccc(F)c4)c4ncnc(N)c34)cc2s1
IC50 [1]: < 0.1 µM
IC50 [3]: < 10 µM
EC50 [4]: < 0.1 µM

Cc1cccc2cc(Cn3nc(-c4ccc(F)c(O)c4)c4c(N)ncnc43)n(C(C)C)c(=O)c12
IC50 [1]: < 0.1 µM
IC50 [2]: > 10 µM
IC50 [3]: < 10 µM
EC50 [4]: < 0.1 µM

Cc1ccccc1-n1c(Cn2nc(-c3cn[nH]c3)c3c(N)ncnc32)cc2cccc(C)c2c1=O
IC50 [1]: < 0.1 µM
IC50 [2]: > 10 µM
IC50 [3]: < 10 µM
EC50 [4]: < 0.1 µM

COc1ccccc1-n1c(Cn2nc(-c3cc(O)cc(F)c3)c3c(N)ncnc32)cc2cccc(C)c2c1=O
IC50 [1]: < 0.1 µM
IC50 [2]: < 10 µM
IC50 [3]: < 10 µM
EC50 [4]: < 0.1 µM

CC(=O)Nc1nc2ccc(-c3nn(Cc4cc5cccc(F)c5c(=O)n4C(C)C)c4ncnc(N)c34)cc2s1
IC50 [1]: < 0.1 µM
IC50 [2]: < 100 µM
IC50 [3]: < 10 µM
EC50 [4]: < 0.1 µM

Cc1cccc2cc(Cn3nc(-c4cc(O)cc(F)c4)c4c(N)ncnc43)n(-c3ccccc3)c(=O)c12
IC50 [1]: < 0.1 µM
IC50 [2]: < 1 µM
IC50 [3]: < 10 µM
EC50 [4]: < 0.1 µM

Cc1cccc2cc(Cn3nc(-c4ccc(O)c(F)c4)c4c(N)ncnc43)n(-c3ccccc3F)c(=O)c12
IC50 [1]: < 1 µM
IC50 [2]: > 10 µM
IC50 [3]: > 10 µM
EC50 [4]: < 1 µM

Cc1cccc2cc(Cn3nc(-c4ccc(O)c(Cl)c4)c4c(N)ncnc43)n(-c3ccccc3F)c(=O)c12
IC50 [1]: < 1 µM
IC50 [2]: > 10 µM
IC50 [3]: > 10 µM
EC50 [4]: < 10 µM

Cc1cccc2cc(C(C)Nc3ncnc4[nH]cnc34)n(-c3ccccc3F)c(=O)c12 (stereo not drawn)
IC50 [1]: < 0.1 µM
IC50 [3]: < 10 µM
EC50 [4]: < 0.1 µM

Cc1ccccc1-n1c(Cn2nc(-c3ccc(O)cc3)c3c(N)ncnc32)cc2cccc(C)c2c1=O
IC50 [1]: < 1 µM
IC50 [2]: > 10 µM
IC50 [3]: > 10 µM
EC50 [4]: < 1 µM

CNC(=O)Nc1nc2ccc(-c3nn(Cc4cc5cccc(C)c5c(=O)n4-c4ccccc4C)c4ncnc(N)c34)cc2s1
IC50 [1]: < 0.1 µM
IC50 [2]: < 100 µM
EC50 [4]: < 0.1 µM

Cc1cccc2cc(Cn3nc(-c4cccc(O)c4)c4c(N)ncnc43)n(C3CCCCC3)c(=O)c12
IC50 [1]: < 0.1 µM
IC50 [2]: > 10 µM
IC50 [3]: < 10 µM
EC50 [4]: < 1 µM

Cc1ccccc1-n1c(Cn2nc(-c3ccc(F)c(O)c3)c3c(N)ncnc32)cc2ccccc2c1=O
IC50 [1]: < 0.1 µM
IC50 [2]: > 10 µM
IC50 [3]: > 10 µM
EC50 [4]: < 0.1 µM

Cc1cccc2cc(Cn3nc(-c4cc(O)cc(F)c4)c4c(N)ncnc43)n(-c3ccccc3Cl)c(=O)c12
IC50 [1]: < 0.1 µM
IC50 [2]: < 10 µM
IC50 [3]: < 1 µM
EC50 [4]: < 0.1 µM

Cc1ccccc1-n1c(Cn2nc(Br)c3c(N)ncnc32)cc2cccc(C)c2c1=O
IC50 [1]: < 0.1 µM
IC50 [2]: > 10 µM
EC50 [4]: < 1 µM

Cc1ccccc1-n1c(Cn2nc(I)c3c(N)ncnc32)cc2ccccc2c1=O
IC50 [1]: < 1 µM
IC50 [2]: > 10 µM
EC50 [4]: < 1 µM

Cc1ccccc1-n1c(Cn2nc(-c3ccc4nc(N)ncc4c3)c3c(N)ncnc32)cc2cccc(C)c2c1=O
IC50 [1]: < 0.1 µM
IC50 [2]: < 100 µM
IC50 [3]: < 1 µM
EC50 [4]: < 0.1 µM

CC(=O)Nc1nc2ccc(-c3nn(Cc4cc5cccc(C)c5c(=O)n4C4CC4)c4ncnc(N)c34)cc2s1
IC50 [1]: < 0.1 µM
IC50 [2]: < 100 µM
IC50 [3]: < 0.1 µM
EC50 [4]: < 0.1 µM

CCn1c(Cn2nc(-c3ccc4nc(NC(C)=O)sc4c3)c3c(N)ncnc32)cc2cccc(C)c2c1=O
IC50 [1]: < 0.1 µM
IC50 [2]: < 100 µM
IC50 [3]: < 1 µM
EC50 [4]: < 0.1 µM

Cc1cccc2cc(Cn3nc(-c4cc(O)cc(F)c4)c4c(N)ncnc43)n(C3CCC3)c(=O)c12
IC50 [1]: < 0.1 µM
IC50 [2]: < 10 µM
IC50 [3]: < 10 µM
EC50 [4]: < 0.1 µM

Cc1ccccc1-n1c(Cn2nc(C#C[C@H](C)O)c3c(N)ncnc32)cc2cccc(C)c2c1=O
IC50 [1]: < 1 µM
IC50 [2]: > 10 µM
IC50 [3]: < 10 µM
EC50 [4]: < 1 µM

Cc1ccccc1-n1c(C(C)Nc2ncnc3[nH]cnc23)cc2cccc(C)c2c1=O (stereo not drawn)
IC50 [1]: < 0.1 µM
IC50 [2]: > 10 µM
IC50 [3]: < 10 µM
EC50 [4]: < 0.1 µM

CCc1ccccc1-n1c(Cn2nc(-c3cn[nH]c3)c3c(N)ncnc32)cc2cccc(C)c2c1=O
IC50 [1]: < 0.1 µM
IC50 [2]: < 10 µM
IC50 [3]: < 10 µM
EC50 [4]: < 0.1 µM

Cc1cccc2cc(C(C)Nc3nc(N)nc4[nH]cnc34)n(-c3ccccc3)c(=O)c12 (stereo not drawn)
IC50 [3]: < 0.1 µM

Cc1cccc2cc(Cn3nc(-c4cccc(O)c4)c4c(N)ncnc43)n(-c3ccccc3O)c(=O)c12
IC50 [1]: < 0.1 µM
IC50 [2]: > 10 µM
IC50 [3]: < 10 µM
EC50 [4]: < 0.1 µM

Cc1cccc2cc(Cn3nc(-c4cn[nH]c4)c4c(N)ncnc43)n(-c3ccccc3C(C)C)c(=O)c12
IC50 [1]: < 0.1 µM
IC50 [2]: < 10 µM
IC50 [3]: < 1 µM
EC50 [4]: < 0.1 µM

Cc1cccc2cc([C@H](C)Nc3nc(Cl)nc4[nH]cnc34)n(C3CC3)c(=O)c12
IC50 [1]: < 0.1 µM
IC50 [3]: < 0.1 µM

Cc1ccccc1-n1c(Cn2nc(-c3ccc(O)c(F)c3)c3c(N)ncnc32)cc2cccc(C)c2c1=O
IC50 [1]: < 0.1 µM
IC50 [2]: > 10 µM
EC50 [4]: < 1 µM

COc1ccc(-c2nn(Cc3cc4cccc(C)c4c(=O)n3-c3ccccc3C)c3ncnc(N)c23)cc1
IC50 [1]: < 1 µM
IC50 [2]: > 10 µM
EC50 [4]: < 1 µM

Cc1ccccc1-n1c(Cn2nc(-c3cnc4[nH]ccc4c3)c3c(N)ncnc32)cc2cccc(C)c2c1=O
IC50 [1]: < 0.1 µM
IC50 [2]: > 10 µM
EC50 [4]: < 0.1 µM

Cc1cccc2cc(Cn3nc(-c4ccc(F)c(O)c4)c4c(N)ncnc43)n(C3CCCC3)c(=O)c12
IC50 [1]: < 0.1 µM
IC50 [2]: > 10 µM
IC50 [3]: > 10 µM

CCc1ccccc1-n1c(Cn2nc(I)c3c(N)ncnc32)cc2cccc(C)c2c1=O
IC50 [1]: < 0.1 µM
IC50 [3]: < 10 µM
EC50 [4]: < 1 µM

Cc1cccnc1-n1c(Cn2nc(-c3cc(O)cc(F)c3)c3c(N)ncnc32)cc2cccc(C)c2c1=O
IC50 [1]: < 0.1 µM
IC50 [2]: > 10 µM
EC50 [4]: < 0.1 µM

Cc1ccccc1-n1c(Cn2nc(-c3ccc(F)c(O)c3)c3c(N)ncnc32)cc2cccc(F)c2c1=O
IC50 [1]: < 0.1 µM
IC50 [2]: > 10 µM
IC50 [3]: > 10 µM

Cc1ccccc1-n1c(Cn2nc(-c3ccc4cc[nH]c4c3)c3c(N)ncnc32)cc2cccc(C)c2c1=O
IC50 [1]: < 0.1 µM
IC50 [2]: > 10 µM
EC50 [4]: < 1 µM

Cc1ccccc1-n1c(Cn2nc(C#C[C@@H](C)O)c3c(N)ncnc32)cc2ccccc2c1=O
IC50 [1]: < 1 µM
IC50 [2]: > 10 µM
EC50 [4]: < 1 µM

Cc1cccc2cc(Cn3nc(-c4cccc(O)c4)c4c(N)ncnc43)n(-c3ccccc3C(C)C)c(=O)c12
IC50 [1]: < 0.1 µM
IC50 [2]: > 10 µM
EC50 [4]: < 0.1 µM

Cc1ccccc1-n1c(Cn2nc(-c3ccc(Cl)c(O)c3)c3c(N)ncnc32)cc2ccccc2c1=O
IC50 [1]: < 0.1 µM
IC50 [2]: > 10 µM
IC50 [3]: > 10 µM

Cc1cccc2cc([C@H](C)Nc3ncnc4[nH]cnc34)n(-c3ccc(F)cc3)c(=O)c12
IC50 [3]: < 0.1 µM

Cc1cccc2cc(Cn3nc(I)c4c(N)ncnc43)n(-c3ccccc3C(C)C)c(=O)c12
IC50 [1]: < 0.1 µM
IC50 [3]: < 10 µM
EC50 [4]: < 0.1 µM

Cc1cccc2cc(Cn3nc(-c4cccc(Cl)c4)c4c(N)ncnc43)n(-c3ccccc3F)c(=O)c12
IC50 [1]: < 10 µM
IC50 [3]: > 10 µM
EC50 [4]: > 10 µM

C=Cc1nn(Cc2cc3cccc(C)c3c(=O)n2-c2ccccc2)c2ncnc(N)c12
IC50 [1]: < 0.1 µM
EC50 [4]: < 0.1 µM

Cc1cccc2cc(C(C)Nc3ncnc4[nH]cnc34)n(-c3c(F)cccc3F)c(=O)c12 (stereo not drawn)
IC50 [1]: < 0.1 µM
EC50 [4]: < 0.1 µM

Cc1cccc2cc([C@H](C)Nc3nc(F)nc4[nH]cnc34)n(C3CC3)c(=O)c12
IC50 [1]: < 0.1 µM
IC50 [3]: < 0.1 µM

CCC(Nc1ncnc2[nH]cnc12)c1cc2ccccc2c(=O)n1-c1ccccc1 (stereo not drawn)
IC50 [1]: < 0.1 µM
EC50 [4]: < 0.1 µM
